# Data taken from patent US8865679B2 (priority 2001, dated 2014).
# “And” between values parts separate entries of the source, which are not always exact repeats. Equal values may be shown once.
# Columns and labels:
# Conditions in all cases: mouse, in vivo
# [1] = test system: E. coli strain TVDL-rat; set-up: species or system mice
# [2] = test system: B. anthracis; set-up: species or system mouse (Balb/c)
# [3] = test system: B. anthracis spores; set-up: species or system mouse (Balb/c)
substance,measurement,setting,value
"poly-(1,6)-β-D-glucopyranosyl (1,3)β-D-glucopyranose [PGG]",survival rate,[1],90% and 75% and 70%
same,bacteria-free animals,[2],86.4%
same,bacterial load in lung of surviving animals,[2],2.6×10^5 CFU/g lung
same,mean survival time,[3],10.2 days and 11.5 days
same,number of survivors out of 22 mice,[3],19
same,percent survivors,[3],86.36%
same,"survival, data pooled from the two experiments",[3],10.86 days
